Assay results: PMC6154745 (Oncotarget, 2018)
Marks after values point to notes of the source that are not given here.

Tests used:
[1] = system: liver miRNAs; test: miRNA expression (microarray), Study 3, liver; type: in vivo, ICR (CD-1) mice
Experimental: (§1) Each group was composed of 10 female mice.
(§2) The urine was collected for 8 h and pooled from the mice belonging to each experimental group in Study 3 by using metabolic cages during the day preceding euthanasia of mice. Immediately after sacrifice, a bronchoalveolar lavage (BAL) was performed and used for preparing BALF, and the blood was collected and used for preparing serum. BALF and blood serum were pooled within each experimental group. The organs reported in the general design of the studies were collected, as previously described. Immediately after collection, each organ or fluid was immersed in RNAlater and kept at -80°C for miRNA analysis. Portions of the organs used in Study 1 and Study 2 were stored at -80°C for evaluating DNA damage.
(§3) For evaluating the expression of pulmonary miRNAs we used the 7th generation miRCURY LNA™ microRNA Array (Exiqon), which contains 3,100 capture probes covering human, mouse and rat miRNAs. In particular, this array covers 1,135 mouse miRNAs, i.e. the 88.6% of the 1,281 mouse miRNAs listed in miRBase 19. Microarray analyses were carried out as previously described.
(§4) Treatment-related differences in body weights, in the frequency of MN NCE, and in the levels of pulmonary DNA adducts and 8-oxo-dGuo, all of them expressed as means ± SE within each group of mice, were evaluated for statistical significance by ANOVA followed by Student's t test for unpaired data. miRNA microarray data, after local background subtraction, log transformation, and normalization were analyzed by GeneSpring software (Agilent, Santa Clara, CA), and expression data were median centered by using the GeneSpring normalization option.

[2] = system: brain miRNAs; test: miRNA expression (microarray), Study 3, brain; type: in vivo, ICR (CD-1) mice; details: high dose
Experimental: as §1
as §2, with “damage. […]” for “damage.”
as §4

[3] = system: BALF miRNAs; test: miRNA expression (microarray), Study 3, BALF; type: in vivo, ICR (CD-1) mice
Experimental: as §1, §2, §3, §4

[4] = system: blood serum miRNAs; test: miRNA expression (microarray), Study 3, blood serum; type: in vivo, ICR (CD-1) mice
Experimental: as §1, §2, §3, §4

[5] = system: blood serum miRNAs; test: Blood serum miRNAs (microarray), Study 1; type: in vivo, Swiss H mice
[6] = system: skeletal muscle miRNAs; test: miRNA expression (microarray), Study 3, skeletal muscle; type: in vivo, ICR (CD-1) mice
Experimental: as §1, §2, §3, §4

[7] = system: liver DNA; test: Bulky DNA adducts by 32P postlabeling, Study 2, liver; type: in vivo, ICR (CD-1) mice; details: for Bulky DNA adducts: Liver; for increase of DNA adduct levels over sham-exposed mice: liver
Experimental: as §1
(§5) DNA was extracted from tissue specimens (50 mg) collected individually from the lungs of 40 Swiss H mice used in Study 1 and from lungs, heart and liver of 80 ICR (CD-1) mice used in Study 2, as previously described. Bulky DNA adducts, after butanol enrichment, and 8-hydroxy-2’-deoxyguanosine (8-oxo-dGuo) were measured by ^32P postlabeling as previously described.

[8] = system: colon miRNAs; test: miRNA expression (microarray), Study 3, colon; type: in vivo, ICR (CD-1) mice
Experimental: as §1, §2, §3, §4

[9] = system: lung DNA; test: Bulky DNA adducts by 32P postlabeling, Study 2, lung; type: in vivo, ICR (CD-1) mice
Experimental: as §5

[10] = system: pulmonary miRNAs; test: Pulmonary miRNA expression (microarray), Study 1
Experimental: Ten mice per group (5 males and 5 females) were used. […] Twenty mice per group (10 males and 10 females) were used. […] Each group was composed of 10 female mice.
RNA was extracted from mouse organs (miRNeasy, Qiagen, Hilden, Germany) and body fluids (Exiqon's miRCURY™ RNA Isolation Kit – Biofluids (Exiqon, Vedbaek, Denmark) according to the manufacturers’ instructions. The quality of the RNA extracted was evaluated by spectrophotometric analyses using a fiber optic spectrophotometer (Nanodrop ND-1000).
For evaluating the expression of pulmonary miRNAs we used the 7th generation miRCURY LNA™ microRNA Array (Exiqon), which contains 3,100 capture probes covering human, mouse and rat miRNAs. In particular, this array covers 1,135 mouse miRNAs, i.e. the 88.6% of the 1,281 mouse miRNAs listed in miRBase 19. Microarray analyses were carried out as previously described [22].
Treatment-related differences in body weights, in the frequency of MN NCE, and in the levels of pulmonary DNA adducts and 8-oxo-dGuo, all of them expressed as means ± SE within each group of mice, were evaluated for statistical significance by ANOVA followed by Student's t test for unpaired data. miRNA microarray data, after local background subtraction, log transformation, and normalization were analyzed by GeneSpring software (Agilent, Santa Clara, CA), and expression data were median centered by using the GeneSpring normalization option. The statistical significance of the differences between experimental groups was evaluated by means of the GeneSpring ANOVA applied by using Bonferroni multiple testing correction. […] The overall variability of microarray data, as related to treatments, was evaluated by scatter-plot analysis (SPA), hierarchical cluster analysis (HCA), and principal component analysis (PCA).

[11] = system: lung DNA; test: 8-oxo-dGuo (oxidative DNA damage) in lung by 32P postlabeling, Study 1; type: in vivo, Swiss H mice; details: for 8-oxo-dGuo: lung
Experimental: as §1, §5

[12] = system: heart miRNAs; test: miRNA expression (microarray), Study 3, heart; type: in vivo, ICR (CD-1) mice
Experimental: as §1, §2, §3, §4

[13] = system: stomach miRNAs; test: miRNA expression (microarray), Study 3, stomach; type: in vivo, ICR (CD-1) mice
Experimental: as §1, §2, §3, §4

[14] = celecoxib in MCS-exposed mice vs MCS

## Cc1ccc(-c2cc(C(F)(F)F)nn2-c2ccc(S(N)(=O)=O)cc2)cc1 [Celecoxib, 4-[5-(4-methylphenyl)-3-(trifluoromethyl)-1H-pyrazol-1-yl] benzene-1-sulfonamide]
[1]; MCS-exposed mice
  upregulated/downregulated miRNAs: 2/1
[1]; MCS-free mice
  miR-30c-2-3p downregulation: 9 fold
  miR-30e downregulation: 10 fold
  miR-802-3p downregulation: 7 fold
  upregulated/downregulated miRNAs: 0/15
[1]; high dose
  number of miRNAs modulated by celecoxib: 18
[2]
  number of miRNAs modulated by celecoxib: 0
[3]; MCS-exposed mice
  miR-1964-5p downregulation: 3 fold
  upregulated/downregulated miRNAs: 0/2
[3]; MCS-free mice
  miR-1964-5p downregulation: 6 fold
  upregulated/downregulated miRNAs: 2/3
[3]; high dose
  number of miRNAs modulated by celecoxib: 7
[4]; blood serum, MCS-exposed mice
  upregulated/downregulated miRNAs: 2/3
[4]; blood serum, MCS-free mice
  miR-1964-5p downregulation: 8 fold
  upregulated/downregulated miRNAs: 2/11
[4]; blood serum, high dose
  number of miRNAs modulated by celecoxib: 18
[4]; blood serum, low dose
  number of miRNAs modulated: 2
[4]; blood serum, low dose (20 mg/kg diet) vs sham
  miR30c-5p downregulation: 2.9 fold
[4]; blood serum, low dose (20 mg/kg diet), compared to MCS-exposed mice
  miR-185 downregulation: 2.1 fold
[4]; blood, high dose
  number of miRNAs modulated: 11
[5]; MCS-exposed mice given celecoxib
  number of blood miRNAs on which the effect of MCS was counteracted: 7
[5]; vs sham-exposed mice, 2-fold variation and P < 0.05
  number of miRNAs significantly modulated in blood serum: 18
[6]; MCS-exposed mice
  miR-30e upregulation: 9 fold
  miR-125b downregulation: 11 fold
  miR-511 upregulation: 5 fold
  miR-695 downregulation: 6 fold
  miR-1964-5p downregulation: 5 fold
  upregulated/downregulated miRNAs: 6/10
[6]; MCS-free mice
  upregulated/downregulated miRNAs: 0/0
[6]; high dose
  number of miRNAs modulated by celecoxib: 16
[7]; F
  Bulky DNA adducts: 1.8 ± 0.08^c adducts/10^8 nucleotides
[7]; M
  Bulky DNA adducts: 1.6 ± 0.12^a adducts/10^8 nucleotides
[7]; M + F
  Bulky DNA adducts: 1.7 ± 0.08^a adducts/10^8 nucleotides
[7]; MCS-exposed mice treated with celecoxib, females
  increase of DNA adduct levels over sham-exposed mice: 1.5 fold
[7]; MCS-exposed mice treated with celecoxib, males
  increase of DNA adduct levels over sham-exposed mice: 1.3 fold
[7]; MCS-exposed mice treated with celecoxib, mixed genders
  increase of DNA adduct levels over sham-exposed mice: 1.4 fold
[7]; combined genders
  increase of DNA adduct levels over sham-exposed mice: 1.4 fold
[7]; females
  increase of DNA adduct levels over sham-exposed mice: 1.5 fold
[7]; males
  increase of DNA adduct levels over sham-exposed mice: 1.3 fold
[8]; MCS-exposed mice
  upregulated/downregulated miRNAs: 0/2
[8]; MCS-free mice
  miR-185-5p downregulation: 8 fold
  miR-301 downregulation: 6 fold
  upregulated/downregulated miRNAs: 1/4
[8]; high dose
  number of miRNAs modulated by celecoxib: 7
[9]; F
  Bulky DNA adducts: 3.7 ± 0.31^c adducts/10^8 nucleotides
[9]; M
  Bulky DNA adducts: 4.4 ± 0.56^c adducts/10^8 nucleotides
[9]; M + F
  Bulky DNA adducts: 4.0 ± 0.31^c adducts/10^8 nucleotides
[9]; combined genders
  decrease of DNA adduct levels vs MCS-exposed mice without celecoxib: 1.6 fold
  increase of DNA adduct levels over sham-exposed mice: 2.7 fold
[9]; males
  decrease of DNA adduct levels vs MCS-exposed mice without celecoxib: 1.5 fold
  increase of DNA adduct levels over sham-exposed mice: 2.9 fold
[9]; printed 'males' a second time
  decrease of DNA adduct levels vs MCS-exposed mice without celecoxib: 1.7 fold
[9]; females
  increase of DNA adduct levels over sham-exposed mice: 2.5 fold
[9]; smoke-free mice
  autoradiographic spots formed: 3
[10]; [14]
  number of pulmonary miRNAs significantly dysregulated: 11
  share of pulmonary miRNAs significantly dysregulated: 1.0%
[10]; vs sham-exposed mice
  number of pulmonary miRNAs downregulated: 2
  number of pulmonary miRNAs upregulated: 19
[11]; F
  8-oxo-dGuo: 2.3 ± 0.28 8-oxo-dGuo/10^5 nucleotides
[11]; M
  8-oxo-dGuo: 1.6 ± 0.29 8-oxo-dGuo/10^5 nucleotides
[11]; M + F
  8-oxo-dGuo: 1.9 ± 0.22 8-oxo-dGuo/10^5 nucleotides
[11]; mouse, in vivo
  increase of pulmonary 8-oxo-dGuo levels vs sham-exposed mice: did not affect
[12]; MCS-exposed mice
  upregulated/downregulated miRNAs: 0/1
[12]; MCS-free mice
  upregulated/downregulated miRNAs: 0/2
[12]; high dose
  number of miRNAs modulated by celecoxib: 3
[13]; MCS-exposed mice
  miR-125b downregulation: 9 fold
  miR-802-3p upregulation: 3 fold
  upregulated/downregulated miRNAs: 3/3
[13]; MCS-free mice
  miR-1964-5p downregulation: 4 fold
  upregulated/downregulated miRNAs: 2/12
[13]; high dose
  number of miRNAs modulated by celecoxib: 20
